Experimental data from patent publication US12077503B2, “Substituted cyclic amides and their use as herbicides” (FMC CORPORATION, priority 2015, dated 2024).

Key:
Type in all cases: in vivo
[1] = system: blackgrass (Alopecurus myosuroides); assay: Test A postemergence
Outline: (§1)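 Visual injury scores from 0, no effect, to 100, complete control, were assigned versus untreated controls roughly 10 d after treatment in the greenhouse. Test chemicals, formulated with surfactant in a non-phytotoxic solvent, were applied to planted seeds as a preemergence soil spray or postemergence to one- to two-leaf plants 2 to 10 cm tall, in loam–sand soil.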

[2] = system: Kochia (Kochia scoparia); assay: Test A postemergence; conditions: postemergence; for Kochia plant response rating: 125 g ai/ha, visual injury rating on 0 to 100 scale (0 no effect, 100 complete control), approx. 10 d; for Plant response rating, Kochia: 500 g ai/ha, 0 to 100 scale, 0 no effect, 100 complete control
Outline: as §1

[3] = system: pigweed (Amaranthus retroflexus); assay: Test A postemergence; conditions: postemergence; for Pigweed plant response rating: 125 g ai/ha, visual injury rating on 0 to 100 scale (0 no effect, 100 complete control), approx. 10 d; for Plant response rating, Pigweed: 500 g ai/ha, 0 to 100 scale, 0 no effect, 100 complete control
Outline: as §1

[4] = system: ragweed (common ragweed, Ambrosia elatior); assay: Test A postemergence; conditions: postemergence; for Ragweed plant response rating: 125 g ai/ha, visual injury rating on 0 to 100 scale (0 no effect, 100 complete control), approx. 10 d; for Plant response rating, Ragweed: 500 g ai/ha, 0 to 100 scale, 0 no effect, 100 complete control
Outline: as §1

[5] = system: ryegrass, Italian (Italian ryegrass, Lolium multiflorum); assay: Test A postemergence; conditions: postemergence; for Ryegrass, Italian plant response rating: 125 g ai/ha, visual injury rating on 0 to 100 scale (0 no effect, 100 complete control), approx. 10 d; for Plant response rating, Ryegrass, Italian: 500 g ai/ha, 0 to 100 scale, 0 no effect, 100 complete control
Outline: as §1

[6] = system: barnyardgrass (Echinochloa crus-galli); assay: Test A postemergence
Outline: as §1

[7] = system: wheat (Triticum aestivum); assay: Test A postemergence; conditions: postemergence; for Wheat plant response rating: 125 g ai/ha, visual injury rating on 0 to 100 scale (0 no effect, 100 complete control), approx. 10 d; for Plant response rating, Wheat: 500 g ai/ha, 0 to 100 scale, 0 no effect, 100 complete control
Outline: as §1

[8] = system: Galium (catchweed bedstraw, Galium aparine); assay: Test A postemergence; conditions: postemergence; for Galium plant response rating: 125 g ai/ha, visual injury rating on 0 to 100 scale (0 no effect, 100 complete control), approx. 10 d; for Plant response rating, Galium: 500 g ai/ha, 0 to 100 scale, 0 no effect, 100 complete control
Outline: as §1

[9] = system: giant foxtail (Setaria faberii); assay: Test A postemergence; conditions: postemergence; for Foxtail, Giant plant response rating: 125 g ai/ha, visual injury rating on 0 to 100 scale (0 no effect, 100 complete control), approx. 10 d; for Plant response rating, Foxtail, Giant: 500 g ai/ha, 0 to 100 scale, 0 no effect, 100 complete control
Outline: as §1

[10] = system: corn (Zea mays); assay: Test A postemergence; conditions: postemergence; for Corn plant response rating: 125 g ai/ha, visual injury rating on 0 to 100 scale (0 no effect, 100 complete control), approx. 10 d; for Plant response rating, Corn: 500 g ai/ha, 0 to 100 scale, 0 no effect, 100 complete control
Outline: as §1

[11] = system: rice (Oryra sativa); assay: Test B flooded paddy test; conditions: Flood, 0 to 100 scale where 0 is no effect and 100 is complete control, 13 to 15 d
Outline: (§2)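 Percent control, visually estimated after 13–15 d in the greenhouse on a 0–100 basis, compares treated pots with untreated ones; compound was put into paddy water 3 cm above the soil when plants had two leaves.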

[12] = system: ducksalad (Heteranthera limosa); assay: Test B flooded paddy test; conditions: Flood, 0 to 100 scale where 0 is no effect and 100 is complete control, 13 to 15 d
Outline: as §2

[13] = system: barnyardgrass (Echinochloa crus-galli); assay: Test B flooded paddy test; conditions: Flood, 0 to 100 scale where 0 is no effect and 100 is complete control, 13 to 15 d
Outline: as §2

[14] = system: sedge, umbrella (small-flower umbrella sedge, Cyperus difformis); assay: Test B flooded paddy test; conditions: Flood, 0 to 100 scale where 0 is no effect and 100 is complete control, 13 to 15 d
Outline: as §2

[15] = system: Kochia (Kochia scoparia); assay: Test A preemergence; conditions: for Plant response rating, Kochia: 125 g ai/ha, preemergence, 0 to 100 scale (0 no effect, 100 complete control); for Kochia plant response rating (0 to 100 scale): Preemergence, 500 g ai/ha, 0 is no effect, 100 is complete control
Outline: as §1

[16] = system: pigweed (Amaranthus retroflexus); assay: Test A preemergence; conditions: for Plant response rating, Pigweed: 125 g ai/ha, preemergence, 0 to 100 scale (0 no effect, 100 complete control); for Pigweed plant response rating (0 to 100 scale): Preemergence, 500 g ai/ha, 0 is no effect, 100 is complete control
[17] = system: ragweed (common ragweed, Ambrosia elatior); assay: Test A preemergence; conditions: for Plant response rating, Ragweed: 125 g ai/ha, preemergence, 0 to 100 scale (0 no effect, 100 complete control); for Ragweed plant response rating (0 to 100 scale): Preemergence, 500 g ai/ha, 0 is no effect, 100 is complete control
Outline: as §1

[18] = system: ryegrass, Italian (Italian ryegrass, Lolium multiflorum); assay: Test A preemergence; conditions: for Plant response rating, Ryegrass, Italian: 125 g ai/ha, preemergence, 0 to 100 scale (0 no effect, 100 complete control); for Ryegrass, Italian plant response rating (0 to 100 scale): Preemergence, 500 g ai/ha, 0 is no effect, 100 is complete control
Outline: as §1

[19] = system: barnyardgrass (Echinochloa crus-galli); assay: Test A preemergence; conditions: for Plant response rating, Barnyardgrass: 125 g ai/ha, preemergence, 0 to 100 scale (0 no effect, 100 complete control); for Barnyardgrass plant response rating (0 to 100 scale): Preemergence, 500 g ai/ha, 0 is no effect, 100 is complete control
Outline: as §1

[20] = system: giant foxtail (Setaria faberii); assay: Test A preemergence; conditions: for Plant response rating, Foxtail, Giant: 125 g ai/ha, preemergence, 0 to 100 scale (0 no effect, 100 complete control); for Foxtail, Giant plant response rating (0 to 100 scale): Preemergence, 500 g ai/ha, 0 is no effect, 100 is complete control
Outline: as §1

[21] = 500 g ai/ha, postemergence, 0 to 100 scale, 0 no effect, 100 complete control
[22] = Postemergence, 125 g ai/ha, visual injury, 0 to 100 scale (0 no effect, 100 complete control), approx. 10 d

Compound	Plant response rating, Blackgrass [1, 21]	Plant response rating, Blackgrass [1, 22]	Kochia plant response rating [2]	Plant response rating, Kochia [2]	Pigweed plant response rating [3]	Plant response rating, Pigweed [3]	Ragweed plant response rating [4]	Plant response rating, Ragweed [4]	Ryegrass, Italian plant response rating [5]	Plant response rating, Ryegrass, Italian [5]	Plant response rating, Barnyardgrass [6, 21]	Plant response rating, Barnyardgrass [6, 22]	Wheat plant response rating [7]	Plant response rating, Wheat [7]	Galium plant response rating [8]	Plant response rating, Galium [8]	Foxtail, Giant plant response rating [9]	Plant response rating, Foxtail, Giant [9]	Corn plant response rating [10]	Plant response rating, Corn [10]	further results
O=C1NCC(c2cccc(OCC(F)F)c2)C1C(=O)Nc1ccccc1F (racemic) [Compound 387]	50	0	0	0	0	0	0	0	0	0	70	70	0	0	0	0	50	70	0	0	Plant response rating, Rice ([11]; 500 g ai/ha): 20; Plant response rating, Ducksalad ([12]; 500 g ai/ha): 75; Plant response rating, Barnyardgrass ([13]; 500 g ai/ha): 50; Plant response rating, Sedge, Umbrella ([14]; 500 g ai/ha): 0; Plant response rating, Kochia [15]: 0; Kochia plant response rating (0 to 100 scale) [15]: 0; Plant response rating, Pigweed [16]: 0; Pigweed plant response rating (0 to 100 scale) [16]: 0; Plant response rating, Ragweed [17]: 0; Ragweed plant response rating (0 to 100 scale) [17]: 0; Plant response rating, Ryegrass, Italian [18]: 0; Ryegrass, Italian plant response rating (0 to 100 scale) [18]: 0; Plant response rating, Barnyardgrass [19]: 70; Barnyardgrass plant response rating (0 to 100 scale) [19]: 80; Plant response rating, Foxtail, Giant [20]: 70; Foxtail, Giant plant response rating (0 to 100 scale) [20]: 90
O=C1NCC(c2cccc(OC(F)(F)C(F)F)c2)C1C(=O)Nc1ccccc1C(F)F (stereo not drawn) [Compound 391]	70	50	0	60	30	50	20	30	30	40	80	60	0	50	60	60	90	90	40	70	Plant response rating, Rice ([11]; 250 g ai/ha): 0; Plant response rating, Ducksalad ([12]; 250 g ai/ha): 100; Plant response rating, Barnyardgrass ([13]; 250 g ai/ha): 40; Plant response rating, Sedge, Umbrella ([14]; 250 g ai/ha): 0; Plant response rating, Kochia [15]: 30; Kochia plant response rating (0 to 100 scale) [15]: 50; Plant response rating, Pigweed [16]: 70; Pigweed plant response rating (0 to 100 scale) [16]: 70; Plant response rating, Ragweed [17]: 80; Ragweed plant response rating (0 to 100 scale) [17]: 80; Plant response rating, Ryegrass, Italian [18]: 20; Ryegrass, Italian plant response rating (0 to 100 scale) [18]: 50; Plant response rating, Barnyardgrass [19]: 80; Barnyardgrass plant response rating (0 to 100 scale) [19]: 90; Plant response rating, Foxtail, Giant [20]: 90; Foxtail, Giant plant response rating (0 to 100 scale) [20]: 90
